# According to EP1206258B1, “COMPOSITIONS CONTAINING ESTERS FOR TREATING PARASITIC INFESTATIONS OF ORGANISMS” (priority 1999, dated 2001):
# Columns and labels:
# Penicillium digitatum = assay: growth inhibition test on SAB agar, P. digitatum; type: cell-based; parameters: key to Growth of P. digitatum: - = No Growth; + = Growth; ++ = Extensive Growth
# Method: (§1) The antifungal activity of ethyl trans-cinnamate against a number of different fungi was investigated by means of in a simple growth inhibition test.
# (§2) The following quantities of Ethyl trans-Cinnamate were added to Sabourand Dextrose agar (SAB); 50 ml L^-1, 4ml L^-1, 2ml L^-1, 1ml L^-1, 400 µl L^-1, 200 µl L^-1 and 40 µl L^-1. […] These were then autoclaved and poured into standard Petri dishes. […] Duplicate plates of each concentration, plus control plates containing only SAB Agar, where then separately inoculated with, four different species of fungi, these were Aspergillus nidulans, Penicillium digitatum, Rhizopus arrhizus and Fusarium culmorum. Inoculation was carried out using a single stab at the centre of each Petri dish. The plates were then incubated at 30°C for 6 days and daily measurements of mycobial growth where taken every 24 hours.
# eggs of L.sericata = assay: in vitro test on hatching of eggs of L.sericata (immersion); parameters: species or system Lucilia sericata; settings: V/V in 2.0% W/V aqueous lecithin
# Method: A series of in vitro tests were carried out to investigate the effects of the compound trans-cinnamic acid ethyl ester on the hatching of eggs of L.sericata.
# A blowfly culture originating from the Central Veterinary Laboratory based in Weybridge, Surrey was used for the tests. None of the original adults had previously been exposed or resistant to insecticides. Eggs aged 10±2 hours of the blowfly were harvested on pig's liver in clusters using a prolene 4/0 paintbrush and examined under the binocular microscope for suitablility. Adult females used to produce these eggs were kept at 20°C, rh 70±5%, with a photoperiod of 8 hours. Groups of 30 eggs were then immediately transferred to a 9-cm Whatman filter paper in a 9-cm plastic petri dish. Two ml of cinnamic acid ethyl ester at concentrations in the range 1.0%; 2.5%; 5.0%; 7.5% and 10.0% V/V was poured gently into the petri dish immersing the eggs. Each concentration was previously prepared by dilution of active compound in a 2.0% W/V aqueous lecithin solution pre-warmed to 20°C. The mixture was sonicated for two minutes. After an exposure time of 1 minute, the test solution was carefully poured off and the eggs recovered individually to a 7ml polythene container in which a filter paper was saturated with pig's liver washings. […] Eggs following treatment were incubated at 25°C, rh 70±2% with a photoperiod of 8 hours duration. Hatching typically occurred within 12 hours of treatment.
# Each concentration was replicated twice; controls were treated using only lecithin solution. The whole experiment was repeated using two further exposure times of 30 minutes and 90 minutes respectively.
# The data were analysed using fitted curve graphical analysis. […] The data gathered from the experiment with an exposure time of 1 minute was also expressed using the probit transformation.
# Fitted curves were used to calculate the concentration required to kill 50% of the eggs, (LC50) using the data obtained after immersing the eggs in solutions ranging from 1.0% to 10.0% V/V. The median lethal concentrations, (LC50) and LC95 concentrations are shown in Table 4 below:- Table 4
# Fusarium culmorum = assay: growth inhibition test on SAB agar, F. culmorum; type: cell-based
# Method: as §1, §2
# [1] = 50ml L-^1 and higher doses, further experiments, data not shown
# [2] = Lethal Concentrations at 1 minute
# [3] = Lethal Concentrations at 30 minutes
smiles,measurement,setting,value
CCOC(=O)/C=C/c1ccccc1 [trans-cinnamic acid ethyl ester],Growth of P. digitatum,"Penicillium digitatum; 1ml L^-1, Day 1",-
same,Growth of P. digitatum,"Penicillium digitatum; 1ml L^-1, Day 2",-
same,Growth of P. digitatum,"Penicillium digitatum; 1ml L^-1, Day 3",-
same,Growth of P. digitatum,"Penicillium digitatum; 1ml L^-1, Day 4",+
same,Growth of P. digitatum,"Penicillium digitatum; 1ml L^-1, Day 5",+
same,Growth of P. digitatum,"Penicillium digitatum; 1ml L^-1, Day 6",+
same,Growth of P. digitatum,"Penicillium digitatum; 2ml L^-1, Day 1",-
same,Growth of P. digitatum,"Penicillium digitatum; 2ml L^-1, Day 2",-
same,Growth of P. digitatum,"Penicillium digitatum; 2ml L^-1, Day 3",-
same,Growth of P. digitatum,"Penicillium digitatum; 2ml L^-1, Day 4",-
same,Growth of P. digitatum,"Penicillium digitatum; 2ml L^-1, Day 5",-
same,Growth of P. digitatum,"Penicillium digitatum; 2ml L^-1, Day 6",-
same,Growth of P. digitatum,"Penicillium digitatum; 4ml L^-1, Day 1",-
same,Growth of P. digitatum,"Penicillium digitatum; 4ml L^-1, Day 2",-
same,Growth of P. digitatum,"Penicillium digitatum; 4ml L^-1, Day 3",-
same,Growth of P. digitatum,"Penicillium digitatum; 4ml L^-1, Day 4",-
same,Growth of P. digitatum,"Penicillium digitatum; 4ml L^-1, Day 5",-
same,Growth of P. digitatum,"Penicillium digitatum; 4ml L^-1, Day 6",-
same,Growth of P. digitatum,"Penicillium digitatum; 40µl L^-1, Day 1",-
same,Growth of P. digitatum,"Penicillium digitatum; 40µl L^-1, Day 2",++
same,Growth of P. digitatum,"Penicillium digitatum; 40µl L^-1, Day 3",++
same,Growth of P. digitatum,"Penicillium digitatum; 40µl L^-1, Day 4",++
same,Growth of P. digitatum,"Penicillium digitatum; 40µl L^-1, Day 5",++
same,Growth of P. digitatum,"Penicillium digitatum; 40µl L^-1, Day 6",++
same,duration of complete inhibition of growth,Penicillium digitatum; [1],at least 8 days
same,inhibition of growth,Penicillium digitatum; 50ml L-^1 level,complete inhibition of growth
same,Growth of P. digitatum,"Penicillium digitatum; 50 ml L^-1, Day 1",-
same,Growth of P. digitatum,"Penicillium digitatum; 50 ml L^-1, Day 2",-
same,Growth of P. digitatum,"Penicillium digitatum; 50 ml L^-1, Day 3",-
same,Growth of P. digitatum,"Penicillium digitatum; 50 ml L^-1, Day 4",-
same,Growth of P. digitatum,"Penicillium digitatum; 50 ml L^-1, Day 5",-
same,Growth of P. digitatum,"Penicillium digitatum; 50 ml L^-1, Day 6",-
same,Growth of P. digitatum,"Penicillium digitatum; 200µl L^-1, Day 1",-
same,Growth of P. digitatum,"Penicillium digitatum; 200µl L^-1, Day 2",++
same,Growth of P. digitatum,"Penicillium digitatum; 200µl L^-1, Day 3",++
same,Growth of P. digitatum,"Penicillium digitatum; 200µl L^-1, Day 4",++
same,Growth of P. digitatum,"Penicillium digitatum; 200µl L^-1, Day 5",++
same,Growth of P. digitatum,"Penicillium digitatum; 200µl L^-1, Day 6",++
same,Growth of P. digitatum,"Penicillium digitatum; 400µl L^-1, Day 1",-
same,Growth of P. digitatum,"Penicillium digitatum; 400µl L^-1, Day 2",+
same,Growth of P. digitatum,"Penicillium digitatum; 400µl L^-1, Day 3",++
same,Growth of P. digitatum,"Penicillium digitatum; 400µl L^-1, Day 4",++
same,Growth of P. digitatum,"Penicillium digitatum; 400µl L^-1, Day 5",++
same,Growth of P. digitatum,"Penicillium digitatum; 400µl L^-1, Day 6",++
same,LC50,eggs of L.sericata; [2],LC50 2.76%
same,LC95,eggs of L.sericata; [2],LC95>7.50%
same,LC50,eggs of L.sericata; [3],LC50 1.78%
same,LC95,eggs of L.sericata; [3],LC95>5.00%
same,LC50,eggs of L.sericata; Lethal Concentrations at 90 minutes,LC50 0.36%
same,Level of Radial Growth (mm) of F. culmorum,"Fusarium culmorum; 1ml L^-1, Day 1",0 mm
same,Level of Radial Growth (mm) of F. culmorum,"Fusarium culmorum; 1ml L^-1, Day 2",0 mm
same,Level of Radial Growth (mm) of F. culmorum,"Fusarium culmorum; 1ml L^-1, Day 3",0 mm
same,Level of Radial Growth (mm) of F. culmorum,"Fusarium culmorum; 1ml L^-1, Day 4",0 mm
same,Level of Radial Growth (mm) of F. culmorum,"Fusarium culmorum; 1ml L^-1, Day 5",0 mm
same,Level of Radial Growth (mm) of F. culmorum,"Fusarium culmorum; 1ml L^-1, Day 6",0 mm
same,Level of Radial Growth (mm) of F. culmorum,"Fusarium culmorum; 2ml L^-1, Day 1",0 mm
same,Level of Radial Growth (mm) of F. culmorum,"Fusarium culmorum; 2ml L^-1, Day 2",0 mm
same,Level of Radial Growth (mm) of F. culmorum,"Fusarium culmorum; 2ml L^-1, Day 3",0 mm
same,Level of Radial Growth (mm) of F. culmorum,"Fusarium culmorum; 2ml L^-1, Day 4",0 mm
same,Level of Radial Growth (mm) of F. culmorum,"Fusarium culmorum; 2ml L^-1, Day 5",0 mm
same,Level of Radial Growth (mm) of F. culmorum,"Fusarium culmorum; 2ml L^-1, Day 6",0 mm
same,Level of Radial Growth (mm) of F. culmorum,"Fusarium culmorum; 4ml L^-1, Day 1",0 mm
same,Level of Radial Growth (mm) of F. culmorum,"Fusarium culmorum; 4ml L^-1, Day 2",0 mm
same,Level of Radial Growth (mm) of F. culmorum,"Fusarium culmorum; 4ml L^-1, Day 3",0 mm
same,Level of Radial Growth (mm) of F. culmorum,"Fusarium culmorum; 4ml L^-1, Day 4",0 mm
same,Level of Radial Growth (mm) of F. culmorum,"Fusarium culmorum; 4ml L^-1, Day 5",0 mm
same,Level of Radial Growth (mm) of F. culmorum,"Fusarium culmorum; 4ml L^-1, Day 6",0 mm
same,Level of Radial Growth (mm) of F. culmorum,"Fusarium culmorum; 40µl L^-1, Day 1",0 mm
same,Level of Radial Growth (mm) of F. culmorum,"Fusarium culmorum; 40µl L^-1, Day 2",0 mm
same,Level of Radial Growth (mm) of F. culmorum,"Fusarium culmorum; 40µl L^-1, Day 3",1 mm
same,Level of Radial Growth (mm) of F. culmorum,"Fusarium culmorum; 40µl L^-1, Day 4",1 mm
same,Level of Radial Growth (mm) of F. culmorum,"Fusarium culmorum; 40µl L^-1, Day 5",2 mm
same,Level of Radial Growth (mm) of F. culmorum,"Fusarium culmorum; 40µl L^-1, Day 6",6 mm
same,duration of complete inhibition of growth,Fusarium culmorum; [1],at least 8 days
same,inhibition of growth,Fusarium culmorum; 50ml L-^1 level,complete inhibition of growth
same,Level of Radial Growth (mm) of F. culmorum,"Fusarium culmorum; 50 ml L^-1, Day 1",0 mm
same,Level of Radial Growth (mm) of F. culmorum,"Fusarium culmorum; 50 ml L^-1, Day 2",0 mm
same,Level of Radial Growth (mm) of F. culmorum,"Fusarium culmorum; 50 ml L^-1, Day 3",0 mm
same,Level of Radial Growth (mm) of F. culmorum,"Fusarium culmorum; 50 ml L^-1, Day 4",0 mm
same,Level of Radial Growth (mm) of F. culmorum,"Fusarium culmorum; 50 ml L^-1, Day 5",0 mm
same,Level of Radial Growth (mm) of F. culmorum,"Fusarium culmorum; 50 ml L^-1, Day 6",0 mm
same,Level of Radial Growth (mm) of F. culmorum,"Fusarium culmorum; 200µl L^-1, Day 1",0 mm
same,Level of Radial Growth (mm) of F. culmorum,"Fusarium culmorum; 200µl L^-1, Day 2",0 mm
same,Level of Radial Growth (mm) of F. culmorum,"Fusarium culmorum; 200µl L^-1, Day 3",0 mm
same,Level of Radial Growth (mm) of F. culmorum,"Fusarium culmorum; 200µl L^-1, Day 4",1 mm
same,Level of Radial Growth (mm) of F. culmorum,"Fusarium culmorum; 200µl L^-1, Day 5",2 mm
same,Level of Radial Growth (mm) of F. culmorum,"Fusarium culmorum; 200µl L^-1, Day 6",6 mm
same,Level of Radial Growth (mm) of F. culmorum,"Fusarium culmorum; 400µl L^-1, Day 1",0 mm
same,Level of Radial Growth (mm) of F. culmorum,"Fusarium culmorum; 400µl L^-1, Day 2",0 mm
same,Level of Radial Growth (mm) of F. culmorum,"Fusarium culmorum; 400µl L^-1, Day 3",0 mm
same,Level of Radial Growth (mm) of F. culmorum,"Fusarium culmorum; 400µl L^-1, Day 4",1 mm
same,Level of Radial Growth (mm) of F. culmorum,"Fusarium culmorum; 400µl L^-1, Day 5",2 mm
same,Level of Radial Growth (mm) of F. culmorum,"Fusarium culmorum; 400µl L^-1, Day 6",6 mm
